# Literature values in publication PMC8965884, “Synthesis and Characterization of Phenylboronic Acid-Modified Insulin With Glucose-Dependent Solubility” (Frontiers in Chemistry, 2022).
# Text: Insulin glargine, marketed as Lantus®, is a long-acting insulin analog with a 24-h dosing regimen. The additional 2 arginine residues on the C-terminus of the B chain increases its isoelectric point (pI) 6.7, which lowers its solubility at physiological pH and leads to precipitation at the subcutaneous injection site ([Kohn et al., 2007]). Glargine is then released slowly from the precipitate into the bloodstream to establish the long-acting property.
"pKa (non-substituted PBA, ref Yan et al., 2004)",Molecule,"isoelectric point (pI) (ref Kohn et al., 2007)"
8.8,"OB(O)c1ccccc1 [PBA, phenylboronic acids]",
,Insulin glargine,6.7
